The values below come from patent US20160128935A1, “METHOD OF TREATING AN ANIMAL” (priority 2012, published 2016).

Each structure is given as a SMILES string.

For the test, the system named is bacterial infections. Description: Treatment of cichlids having bacterial infections by feeding injected live worms. The class given is in vivo. To be noted: Emperor and Peacock Cichlids with bacterial infections; one injected live worm per fish for six days. How it is done: Emperor Cichlids and Peacock Cichlids (fish) having bacterial infections were treated using one live food creature (a live worm) per fish for six days. Each worm was injected with Antibiotic Metronidazole at a measurement of 5 ml in syringe and the worm was injected with as much of the 5 ml as the worm would hold. The injected worms were fed to the fish individually by placing the worm adjacent the fish and feeding was confirmed by observation. The fish ate the treated worms in all cases, showing a vigorous feeding instinct for the live worms. […] It is typical to lose some fish being treated for bacterial infections.

`Cc1ncc([N+](=O)[O-])n1CCO` [Metronidazole]: the “loss of treated fish” value is given as “None of the fish so treated were lost” and the “recovery time (sufficiently recovered to be salable)” value is reported as “sufficiently recovered to be salable within seven days”.
